Patent US8192962B2, “Processes for detecting toxic substances” (Daikin Industries, Ltd., priority 2001, dated 2012)

Test system: Mitochondria-located protein genes
Assay: DNA chip mRNA expression in yeast, mitochondria-located protein genes (Table 2)
Type: cell-based, Saccharomyces cerevisiae S288C
Conditions: cells incubated two hours with the chemical substance
How it was run: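 S. cerevisiae S288C grown at 25° C in YPD were exposed in log phase for two hours to one toxic chemical at a growth-inhibiting, non-lethal concentration; untreated cells served as control. Poly(A) mRNA was reverse-transcribed with Cy3/Cy5-dUTP and hybridized to a whole-genome yeast DNA chip at 65° C for over 12 hours; values are fluorescence ratios versus untreated.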

N#Cc1c(Cl)c(Cl)c(Cl)c(C#N)c1Cl [(9), 2,4,5,6-tetrachloro-1,3-benzenedicarbonitrile]
The level of expressed mRNA in the presence of chemical substance/The level of expressed mRNA in the absence of chemical substance (yeast gene YAL039C): 1.6
The level of expressed mRNA in the presence of chemical substance/The level of expressed mRNA in the absence of chemical substance (yeast gene YBL022C): 2.8
The level of expressed mRNA in the presence of chemical substance/The level of expressed mRNA in the absence of chemical substance (yeast gene YBL030C): 0.4
The level of expressed mRNA in the presence of chemical substance/The level of expressed mRNA in the absence of chemical substance (yeast gene YBL038W): 1.4
The level of expressed mRNA in the presence of chemical substance/The level of expressed mRNA in the absence of chemical substance (yeast gene YBL099W): 0.9
The level of expressed mRNA in the presence of chemical substance/The level of expressed mRNA in the absence of chemical substance (yeast gene YBR003W): 1.0
The level of expressed mRNA in the presence of chemical substance/The level of expressed mRNA in the absence of chemical substance (yeast gene YBR044C): 0.8
The level of expressed mRNA in the presence of chemical substance/The level of expressed mRNA in the absence of chemical substance (yeast gene YBR091C): 0.7
The level of expressed mRNA in the presence of chemical substance/The level of expressed mRNA in the absence of chemical substance (yeast gene YBR122C): 1.1
The level of expressed mRNA in the presence of chemical substance/The level of expressed mRNA in the absence of chemical substance (yeast gene YBR185C): 0.9
The level of expressed mRNA in the presence of chemical substance/The level of expressed mRNA in the absence of chemical substance (yeast gene YBR221C): 1.0
The level of expressed mRNA in the presence of chemical substance/The level of expressed mRNA in the absence of chemical substance (yeast gene YBR251W): 0.5
The level of expressed mRNA in the presence of chemical substance/The level of expressed mRNA in the absence of chemical substance (yeast gene YBR282W): 1.0
The level of expressed mRNA in the presence of chemical substance/The level of expressed mRNA in the absence of chemical substance (yeast gene YCL057W): 4.2
The level of expressed mRNA in the presence of chemical substance/The level of expressed mRNA in the absence of chemical substance (yeast gene YCR046C): 1.9
The level of expressed mRNA in the presence of chemical substance/The level of expressed mRNA in the absence of chemical substance (yeast gene YCR083W): 1.8
The level of expressed mRNA in the presence of chemical substance/The level of expressed mRNA in the absence of chemical substance (yeast gene YDL067C): 0.9
The level of expressed mRNA in the presence of chemical substance/The level of expressed mRNA in the absence of chemical substance (yeast gene YDL181W): 0.7
The level of expressed mRNA in the presence of chemical substance/The level of expressed mRNA in the absence of chemical substance (yeast gene YDL198C): 1.9
The level of expressed mRNA in the presence of chemical substance/The level of expressed mRNA in the absence of chemical substance (yeast gene YDR079W): 0.9
The level of expressed mRNA in the presence of chemical substance/The level of expressed mRNA in the absence of chemical substance (yeast gene YDR178W): 0.9
The level of expressed mRNA in the presence of chemical substance/The level of expressed mRNA in the absence of chemical substance (yeast gene YDR231C): 1.5
The level of expressed mRNA in the presence of chemical substance/The level of expressed mRNA in the absence of chemical substance (yeast gene YDR258C): 4.9
The level of expressed mRNA in the presence of chemical substance/The level of expressed mRNA in the absence of chemical substance (yeast gene YDR298C): 1.0
The level of expressed mRNA in the presence of chemical substance/The level of expressed mRNA in the absence of chemical substance (yeast gene YDR347W): 0.8
The level of expressed mRNA in the presence of chemical substance/The level of expressed mRNA in the absence of chemical substance (yeast gene YDR377W): 1.0
The level of expressed mRNA in the presence of chemical substance/The level of expressed mRNA in the absence of chemical substance (yeast gene YDR529C): 0.5
The level of expressed mRNA in the presence of chemical substance/The level of expressed mRNA in the absence of chemical substance (yeast gene YEL024W): 0.7
The level of expressed mRNA in the presence of chemical substance/The level of expressed mRNA in the absence of chemical substance (yeast gene YEL039C): 1.2
The level of expressed mRNA in the presence of chemical substance/The level of expressed mRNA in the absence of chemical substance (yeast gene YER178W): 1.7
The level of expressed mRNA in the presence of chemical substance/The level of expressed mRNA in the absence of chemical substance (yeast gene YFL016C): 6.4
The level of expressed mRNA in the presence of chemical substance/The level of expressed mRNA in the absence of chemical substance (yeast gene YGL018C): 0.5
The level of expressed mRNA in the presence of chemical substance/The level of expressed mRNA in the absence of chemical substance (yeast gene YGL187C): 0.6
The level of expressed mRNA in the presence of chemical substance/The level of expressed mRNA in the absence of chemical substance (yeast gene YGL191W): 1.1
The level of expressed mRNA in the presence of chemical substance/The level of expressed mRNA in the absence of chemical substance (yeast gene YGR008C): 3.1
The level of expressed mRNA in the presence of chemical substance/The level of expressed mRNA in the absence of chemical substance (yeast gene YGR028W): 1.7
The level of expressed mRNA in the presence of chemical substance/The level of expressed mRNA in the absence of chemical substance (yeast gene YGR062C): 1.0
The level of expressed mRNA in the presence of chemical substance/The level of expressed mRNA in the absence of chemical substance (yeast gene YGR076C): 1.2
The level of expressed mRNA in the presence of chemical substance/The level of expressed mRNA in the absence of chemical substance (yeast gene YGR082W): 0.6
The level of expressed mRNA in the presence of chemical substance/The level of expressed mRNA in the absence of chemical substance (yeast gene YGR174C): 1.8
The level of expressed mRNA in the presence of chemical substance/The level of expressed mRNA in the absence of chemical substance (yeast gene YGR244C): 1.4
The level of expressed mRNA in the presence of chemical substance/The level of expressed mRNA in the absence of chemical substance (yeast gene YHR008C): 1.7
The level of expressed mRNA in the presence of chemical substance/The level of expressed mRNA in the absence of chemical substance (yeast gene YIL155C): 2.5
The level of expressed mRNA in the presence of chemical substance/The level of expressed mRNA in the absence of chemical substance (yeast gene YJL096W): 1.0
The level of expressed mRNA in the presence of chemical substance/The level of expressed mRNA in the absence of chemical substance (yeast gene YJL102W): 3.1
The level of expressed mRNA in the presence of chemical substance/The level of expressed mRNA in the absence of chemical substance (yeast gene YJL133W): 0.6
The level of expressed mRNA in the presence of chemical substance/The level of expressed mRNA in the absence of chemical substance (yeast gene YJL166W): 1.3
The level of expressed mRNA in the presence of chemical substance/The level of expressed mRNA in the absence of chemical substance (yeast gene YJL180C): 1.4
The level of expressed mRNA in the presence of chemical substance/The level of expressed mRNA in the absence of chemical substance (yeast gene YJR045C): 3.2
The level of expressed mRNA in the presence of chemical substance/The level of expressed mRNA in the absence of chemical substance (yeast gene YJR077C): 0.4
